Test system: aconitase
Assay: Aconitase activity in FRDA lymphoblast extracts (spectrophotometric, 340 nm)
Format: cell-based, human
Details: GM16214 lymphoblasts, 500 nM etravirine, after 48 hours, compared with GM16215
Method: Whole-cell extracts from GM16215 lymphoblasts, GM16214 lymphoblasts and GM16214 lymphoblasts treated with etravirine were prepared in ice-cold CelLytic M buffer (Sigma-Aldrich) supplemented with 2 mM sodium citrate and Complete EDTA-free protease inhibitor cocktail (Roche Diagnostic). Spectrophotometric aconitase assays were performed at 25° C. with 100 μg of cell extracts using the BIOXYTECH Aconitase-340™ Assay (OxisResearch™ 21041). Spectrophotometric citrate synthase activities were assessed at 25° C. with 10-20 μg of cell extracts using the Citrate Synthase Assay Kit (Sigma-Aldrich CS0720). […] For the calculation of the activities, one unit of enzyme was expressed as the amount of protein that converted 1 μmol of substrate per minute at 25° C. Quantitative data are presented as mean±SEM of at least three independent experiments.
To further explore the therapeutic potential of etravirine, we considered its ability to correct some of the defects associated with frataxin loss in cells derived from patients. […] To evaluate whether the increase in frataxin levels promoted by etravirine treatment is sufficient to restore ISC biogenesis in FRDA patient-derived cells, we measured the activity of aconitase upon etravirine treatment and compared it to the activity observed in cells derived from the healthy carrier parent. […]

Compound: Cc1cc(C#N)cc(C)c1Oc1nc(Nc2ccc(C#N)cc2)nc(N)c1Br [etravirine]
- aconitase activity in FRDA cells: restore aconitase activity

Reference: US10426775B2, “Methods for treating Friedreich's ataxia with etravirine” (Fratagene Therapeutics srl, priority 2017, dated 2019)
